Measurements from ChEMBL document CHEMBL5137056, “Micromonospora: A Prolific Source of Bioactive Secondary Metabolites with Therapeutic Potential” (J Med Chem, 2022).
≈ marks a conversion by molar mass, not a printed value. Blank lines part the entries; values can stand above or below the compound they belong to.

Key:
[1] = tested on: Human immunodeficiency virus; experiment: Antiviral activity agianst HIV assessed as viral growth inhibition; format: functional, organism-based; settings: Human immunodeficiency virus 1
[2] = Upregulation of glutathione level in mouse Hepa1c1c7 cells assessed as drug concentration required for double induction incubated for 48 hrs in presence of NADPH by Ellman method; format: functional
[3] = target: NAD(P)H dehydrogenase [quinone] 1 (Mus musculus) (UniProt Q64669); experiment: Activation of QR1 in mouse hepatoma cells incubated for 48 hrs by MTT assay; format: cell-based; settings: Hepatoma cell line, filed as activator
[4] = Inhibition of gastrulation in starfish embryo; format: functional; settings: Marthasterias glacialis
[5] = tested on: Staphylococcus aureus; experiment: Antibacterial activity against Staphylococcus aureus NBRC12732 assessed as bacterial growth inhibition; format: functional
[6] = tested on: KB; experiment: Cytotoxicity against human KB cells assessed as reduction in cell viability; format: functional; settings: read-out: ED50 (the source's name)
[7] = tested on: Staphylococcus aureus; experiment: Antibacterial activity methicillin-resistant Staphylococcus aureus ATCC 43300 assessed as bacterial growth inhibition by microdilution method; format: functional
[8] = Inhibition of Staphylococcus tyrS using tyrosine as substrate preincubated for 10 mins by substrate addition and measured after 2 hrs; parameters: species or system Staphylococcus sp.

Sequence of NAD(P)H dehydrogenase [quinone] 1 (Mus musculus) (Q64669 whole entry): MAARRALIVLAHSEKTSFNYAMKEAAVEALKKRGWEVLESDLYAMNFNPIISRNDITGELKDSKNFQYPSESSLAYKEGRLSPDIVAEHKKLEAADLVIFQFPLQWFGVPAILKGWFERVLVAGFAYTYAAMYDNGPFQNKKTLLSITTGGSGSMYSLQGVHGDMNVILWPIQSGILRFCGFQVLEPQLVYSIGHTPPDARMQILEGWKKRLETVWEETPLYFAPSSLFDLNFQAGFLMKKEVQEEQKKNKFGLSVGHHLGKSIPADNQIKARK

SMILES: CC(C)CCCCCCCC[C@@H](O)CC(=O)N[C@@H](CCC(=O)O)C(=O)N[C@@H](CC(C)C)C(=O)N[C@H](CC(C)C)C(=O)N[C@H](C(=O)N[C@@H](CC(=O)O)C(=O)N[C@H](CC(C)C)C(=O)N[C@@H](CC(C)C)C(=O)O)C(C)C
IC50 [1]: 5.3 µM

SMILES: CCC(C)CCCCCCCC[C@@H](O)CC(=O)N[C@@H](CCC(=O)O)C(=O)N[C@@H](CC(C)C)C(=O)N[C@H](CC(C)C)C(=O)N[C@H](C(=O)N[C@@H](CC(=O)O)C(=O)N[C@H](CC(C)C)C(=O)N[C@@H](CC(C)C)C(=O)O)C(C)C (stereo partly specified)
IC50 [1]: 5.3 µM

CD [3]: 10.1 µM
SMILES: CC[C@H]1C[C@@H](C)C(=O)/C=C/[C@]2(C)O[C@H]2[C@H](C)[C@@H](CC)OC(=O)C[C@@H](O)[C@H](C)[C@H]1O[C@@H]1O[C@@H](C)[C@H](O)[C@@H](O)[C@H]1O
CD [2]: 27.7 µM

SMILES: C=C/C=C/[C@H]1O[C@@](O)([C@@H](C)[C@H](O)[C@H](C)[C@H]2OC(=O)/C(OC)=C/C(C)=C/[C@@H](C)[C@@H](O)[C@@H](C)C/C(C)=C/C=C/[C@@H]2OC)C[C@@H](OC(=O)/C=C/C(=O)NC2=C(O)CCC2=O)[C@@H]1C
MIC [4]: 0.01 µg/mL (≈ 0.0121 µM)

MIC [5]: 1.6 µg/mL (≈ 3.15 µM)
SMILES: CC1=C[C@@]2(C)C/C=C/[C@@H](C)[C@@H]3C=C[C@@H]4C[C@@H](C)CC[C@H]4[C@]3(C)C(=O)C3=C(O)[C@@]2(C[C@H]1C[C@@H](C)O)OC3=O

SMILES: COc1n/c(=C\c2ccccc2)c(=O)[nH]/c1=C\c1ccccc1
EC50 [6]: 0.94 µg/mL (≈ 3.09 µM)

SMILES: CNC1=CC(=O)c2c(cnc(C)c2C)C1=O [MANSOURAMYCIN A]
MIC [7]: 8 µg/mL

MIC [5]: 13 µg/mL (≈ 24.8 µM)
SMILES: C[C@H]1CC[C@@H]2[C@H](C=C[C@H]3[C@H](C)/C=C/C[C@]4(C)C=C(CO)[C@H](C[C@@H](C)O)C[C@]45OC(=O)C(=C5O)C(=O)[C@@]23C)C1 [MAKLAMICIN]

IC50 [8]: < 0.001 µM
SMILES: N[C@@H](Cc1ccc(O)cc1)C(=O)N[C@H](C(=O)O)[C@H]1[C@H](O)[C@]2(O)CO[C@@H]([C@@H]2O)N1O

SMILES: C=C/C=C/[C@H]1O[C@@](O)([C@@H](C)[C@H](O)[C@H](C)[C@H]2OC(=O)/C(OC)=C/C(C)=C/[C@@H](C)[C@@H](O)[C@@H](C)C/C(C)=C/C=C/[C@@H]2OC)C[C@@H](O)[C@@H]1C
MIC [4]: 0.01 µg/mL (≈ 0.0158 µM)
